This is an account of results in patent publication US20260076885A1, “Complexation of Oxybenzone with C-methylresorcin[4]arene” (University of Cincinnati, priority 2021, published 2026).

One data set can be described thus: in vitro. It is filed as in vitro ADME, human. The protocol:
The skin permeation of OXB was evaluated using 6% OXB formulations with and without RsC1 in a Franz diffusion cell (FIG. 9 and Table 1).
The amounts of OXB remaining on the skin surface, inside the skin, and on the surface of the donor chamber cap were also determined at the end of the skin permeation experiments. The average total recovery of OXB from the permeation study was approximately 75%.
In addition, the amount of RsC1 that permeated through the skin to the receptor chamber was determined using an HPLC assay.
Rinse 1: rinsing once using receptor chamber solution (PBS with 0.02% sodium azide and 3% cyclodextrin); Rinse 2: rinsing four times using a methanol/water (85:15) solution. The values for the rinses, cut-up skin, and donor chamber cap were adjusted to correct for the extraction method and RsC1 interference during the OXB assay.
Skin permeation studies of OXB were performed using split-thickness human skin in a Franz diffusion cell with a 0.7 cm2 diffusion area. The skin samples were labeled with the code of the skin donor (n=3, CC, RT, or SL) and the same group of skin donors was used in each experiment. To prepare the skin samples, the cadaver skin was cut into 1.5 cm×1.5 cm pieces, thawed in Petri dishes with PBS at room temperature for 2 h, and then patted dry with Kimwipes before being mounted onto the diffusion cell with the stratum corneum side facing up. PBS containing 0.02% sodium azide as a preservative and 3% cyclodextrin as a solubilizing agent for OXB was used as the solution in the receptor chamber. The TEWL of the skin sample was measured to ensure skin integrity before the permeation study. For TEWL measurements, a vapometer was placed on top of the donor chamber of the diffusion cell and the measurement was repeated until a constant TEWL value was obtained (2-3 measurements, 15 min apart). Only skin samples with TEWL values of <10 g/m2/h were used for permeation experiments.
After the TEWL measurement, the skin in the diffusion cell was allowed to equilibrate for 1 h. During this equilibration period, the skin surface was maintained at 32±1° C. The receptor medium was stirred with a magnetic stirrer at 600 rpm to ensure uniform mixing. The permeation study was initiated by applying 2 mg/cm2 of the test formulation on the skin surface in the diffusion cell. The dose of 2 mg/cm2 was selected based on FDA guidelines. The test formulations were 6% OXB and 6% OXB+RsC1 (1:1) in ethanol. At 0, 3, 6, 10, 12, and 24 h after dosing, 0.5 mL samples were withdrawn from the receptor chamber and immediately replaced with the same volume of fresh PBS solution to maintain a constant receptor solution volume. At the end of the experiment, the residual formulation in the donor compartment was recovered by rinsing once with the receptor chamber solution (PBS with 0.02% sodium azide and 3% cyclodextrin) and four times with methanol/water (85:15) solution (each time with 0.5 ml for 30 s). The treated areas were then dried with Kimwipes. The donor chamber cap and gasket were soaked in 5 ml of methanol/water (85:15) solution for 30 min. The skin was then removed from the diffusion cell, cut into small pieces, and extracted with 4×1 ml of methanol/water (85:15) solution. Blank skin samples were used as the control. The samples collected from the receptor chamber, the rinses, and skin extraction were centrifuged (3000×g for 15 min), and OXB content in the supernatant was determined using HPLC. Statistical analysis was performed using the Student's unpaired t-test and p<0.05 was considered significant.
The HPLC assay was conducted using a Shimadzu HPLC system (Shimadzu Scientific Instruments, Inc., Addison, IL) with an LC-20 AT pump, an SPD-20A UV-Vis detector, a SL-20A autoinjector, and a Microsorb-MV100-5 C18 column (150×4.6 mm, Agilent Technologies, Santa Clara, CA). The mobile phase was methanol and water at a ratio of 85:15. The flow rate was 0.8 ml/min. […]

For data set [1] the following is noted: background, cited from earlier work.

With `COc1ccc(C(=O)c2ccccc2)c(O)c1` [OXB, Oxybenzone], the “Total OXB recovered, Average (%)” value in the data set “in vitro” (human, 24 h, 6 %) is 70.3%. The recovery at 24 h, 6 % in “in vitro” (human, Average total recovery of OXB from the permeation study) was ~75%; in the data set “in vitro” (human, Recovery of OXB, Donor chamber cap, Average (%)) it was 0.6%; in “in vitro” (human, Recovery of OXB, Rinse 1, Average (%)), 24%; in “in vitro” (human, Recovery of OXB, Rinse 2, Average (%)), 22.9%; in “in vitro” (human, Recovery of OXB, Skin cut-up, Average (%)) it was 2.7%. For the same molecule, the “Fraction of OXB that can penetrate human skin” value in data set [1] (Franz diffusion cell) is recorded as 10%. In data set [1], the “Fraction of OXB entering the bloodstream and eliminated through urine” value is given as 0.4%.
Regarding `CC1c2cc(c(O)cc2O)C(C)c2cc(c(O)cc2O)C(C)c2cc(c(O)cc2O)C(C)c2cc1c(O)cc2O` (stereo not drawn) [RsC1, C-methylresorcin[4]arene], in “in vitro”, the “Amount of RsC1 permeated through the skin to the receptor chamber” value was “negligible”.
